The text below walks through data of patent US11572402B2, “Method for promoting diversification of antibody variable region” (Chiome Bioscience Inc., priority 2017, dated 2023).

This assay deals with hVEGF-A-#33 cell line. Briefly: Screening for diversification-promoting compounds by FCM (hIgG+_hVEGF-A− population). It counts as cell-based, chicken. The following applies: hVEGF-A-#33 cells expressing human IgG, versus negative control CS(−). The method, then:
Frozen stocks of the hVEGF-A #33 cell line and the hVEGF-A #44 cell line (3.0×10^6 cells) were each awaken with a CS(-) medium, using a 25 cm^2 Flask (Corning, 430639), and were then cultured in a CO2 incubator (SANYO CO2 Incubator MCO-20AIC, 39.5° C., 5% CO2). On the following day, the cells were seeded on a 6-well dish (Nunc, 140675) to a cell density of 1.0×10^4 cells/mL (wherein the cell concentration and the survival rate were measured using CASY cell counter (Nepa Gene)). The cells were cultured in a CS(+) medium, in the presence or absence of a PI3Kα inhibitor ([…]: 10 μM, PI3Kα Inhibitor 2: 500 nM). Moreover, after the cells had been cultured for 2 days, individual samples were subcultured under the same conditions to result in a cell density of 1.0×10^4 cells/mL. Further, after completion of the culture for 3 days, individual samples were subcultured under the same conditions to result in a cell density of 6.0×10^4 cells/mL, and the culture was continued. After completion of the culture for 2 days (Day 7 of the culture), individual samples were centrifuged to remove a supernatant, and the residue was then suspended in a CS(+) medium supplemented with 1 μM FK-506 (hereinafter referred to as a “CS/FK medium”). The suspension was centrifuged again to remove a supernatant. This washing step was carried out repeatedly twice, and individual samples were then suspended in a CS/FK medium supplemented with AF647-labeled hVEGF-A (10 nM) and 2,000-fold diluted Goat Anti-Human IgG-PE. The light was shielded, and the obtained suspension was then reacted at 4° C. for 30 min. After completion of the staining, the reaction mixture was washed with a CS/FK medium twice, and each sample was then suspended in the CS/FK medium. Thereafter, using FACS Aria Fusion (BD), FCM and single cell sorting was carried out. Dead cells were removed using FSC-SSC plot. A plot, in which the vertical axis indicated AF647 (AF647-labeled hVEGF-A) and the longitudinal axis indicated PE (Goat Anti-Human IgG-PE), was developed, and the percentage of PE+(hIgG+)/AF647-(hVEGF-A-) cells was then calculated. In order to make a comparison regarding the number of cells with improved antigen-binding ability according to Affinity Maturation under individual conditions, Affinity Maturation Gate was established according to the following criteria. First, the plot was converted to a contour plot in FCM analysis, and a trapezoid gate having an inclination that was in parallel with the contour of a population in which the most cells were gathered (hereinafter referred to as a “main population”) was established. […] At that time, the vertex of the trapezoid gate was set to be overlapped with the mean value MFI of the main population, and then, a cell population having low antigen-binding ability and a cell population having a low expression level of antibody were set not to enter the gate. The percentage of clones with improved antigen-binding ability was calculated by counting the number of cells existing in this Affinity Maturation Gate and then dividing the obtained value by the total number of the analyzed cells. […]
Turning to `O=C1NC(=O)/C(=C/c2ccc3nccc(-c4ccncc4)c3c2)S1` [GSK1059615], the “percentage of hIgG+_hVEGF-A− cell population (diversification-promoting effect)” value was “increased in comparison to the negative control (CS(−))”. Next, `COc1ccc2c(c1OC)N=C(NC(=O)c1cccnc1)N1CCN=C21` [PIK-90]: “increased in comparison to the negative control (CS(−))”; `Oc1cccc(-c2nc(N3CCOCC3)c3oc4ncccc4c3n2)c1` [PI-103]: “increased in comparison to the negative control (CS(−))”; `N#Cc1ccc(-c2c(-c3ncn[nH]3)sc(N3CCOCC3)c2C#N)c(F)c1` [PF-4989216]: “increased in comparison to the negative control (CS(−))”.
